Columns and labels:
[1] = biological target: T1, Syk (Homo sapiens, UniProt P43405); assay: Syk Biochemical Assay (ADP-Glo luminescence); conditions: ATP 40 μM final, 60 minutes, read-out: SYK Biochem IC50
T1 construct: purchased Promega

[2] = biological target: T2, Ba/F3-Syk cells (Homo sapiens, UniProt P43405); assay: Ba/F3 Proliferation Assay, Ba/F3-Syk cells (Resazurin); format: cell-based; conditions: 48-hour incubation
T2 construct: fused on or other part: Possible but unprinted fusion partner: TEL (ETV6), the usual partner for Ba/F3 lines transformed by Syk; Nothing on a partner is printed

[3] = test system: Ba/F3-WT (wild type) cells; assay: Ba/F3 Proliferation Assay, Ba/F3-WT (wild type) cells with mIL-3 (Resazurin); format: cell-based; conditions: Ba/F3-WT cells +mIL-3, 48-hour incubation

| SMILES | IC50 [1] | EC50 [2] | EC50 ([3]; Mus musculus, BaF3, 48 h) | EC50 [3] |
| --- | --- | --- | --- | --- |
| COCCn1cc(-c2cc3ncccc3c(OC[C@@H]3CNCCO3)n2)cn1 [Compound 2.8, 7-[1-(2-methoxyethyl)-1H-pyrazol-4-yl]-5-{[(2S)-morpholin-2-yl]methoxy}-1,6-naphthyridine] | 37.4 nM | 196 nM | 1440 nM | – |
| FC(F)(F)c1[nH]ncc1-c1cc2ncccc2c(OC[C@@H]2CNCCO2)n1 [Compound 2.17, 5-{[(2S)-morpholin-2-yl]methoxy}-7-[5-(trifluoromethyl)-1H-pyrazol-4-yl]-1,6-naphthyridine] | 789 nM | 2460 nM | > 10000 nM | – |
| CCn1cc(-c2cc3ncccc3c(OC[C@@H]3CNCCO3)n2)cn1 [Compound 2.6, 7-(1-ethyl-1H-pyrazol-4-yl)-5-{[(2S)-morpholin-2-yl]methoxy}-1,6-naphthyridine] | 15.6 nM | 57.2 nM | 1530 nM | – |
| FC(F)n1cc(-c2cc3ncccc3c(OC[C@@H]3CNCCO3)n2)cn1 [Compound 2.15, 7-[1-(difluoromethyl)-1H-pyrazol-4-yl]-5-{[(2S)-morpholin-2-yl]methoxy}-1,6-naphthyridine] | 74.8 nM | 139 nM | 2890 nM | – |
| Cn1cc(-c2cc3ncccc3c(OC[C@@H]3CNCCO3)n2)cn1 [Compound 2.3, 7-(1-methyl-1H-pyrazol-4-yl)-5-{[(2S)-morpholin-2-yl]methoxy}-1,6-naphthyridine] | 39 nM | 105 nM | 2350 nM | – |
| CC(C)n1cc(-c2cc3ncccc3c(OC[C@@H]3CNCC(C)(C)O3)n2)cn1 [Compound 2.45, 5-{[(2S)-6,6-dimethylmorpholin-2-yl]methoxy}-7-[1-(propan-2-yl)-1H-pyrazol-4-yl]-1,6-naphthyridine] | 9.2 nM | 17.8 nM | 1480 nM | – |
| Cn1cc(-c2cc3ncccc3c(OC[C@@H]3CNCC4(CC4)O3)n2)cn1 [Compound 2.43, 7-(1-methyl-1H-pyrazol-4-yl)-5-{[(5S)-4-oxa-7-azaspiro[2.5]octan-5-yl]methoxy}-1,6-naphthyridine] | 31.9 nM | 79.9 nM | 2520 nM | – |
| Cn1cc(-c2cc3ncccc3c(OCC3CNCC(C)(C)O3)n2)cn1 (stereo not drawn) [Compound 2.13, 5-[(6,6-dimethylmorpholin-yl)methoxy]-7-(1-methyl-1H-pyrazol-4-yl)-1,6-naphthyridine] | 51.6 nM | 79 nM | 2400 nM | – |
| c1cnc2cc(-c3cn[nH]c3)nc(OC[C@@H]3CNCCO3)c2c1 [Compound 2.23, 5-{[(2S)-morpholin-2-yl]methoxy}-7-(1H-pyrazol-4-yl)-1,6-naphthyridine] | 106 nM | 440 nM | 5800 nM | – |
| C[C@@H]1CNC[C@@H](COc2nc(-c3cnn(C)c3)cc3ncccc23)O1 (relative stereo) [Compound 2.25, 7-(1-methyl-1H-pyrazol-4-yl)-5-{[(rel-2S,6R)-6-methylmorpholin-2-yl]methoxy}-1,6-naphthyridine] | 39 nM | 62.1 nM | 1510 nM | – |

Results, then the compound that gave them:

| IC50 [1] | EC50 [2] | EC50 ([3]; Mus musculus, BaF3, 48 h) | EC50 [3] | SMILES |
| --- | --- | --- | --- | --- |
| 57.1 nM | 54.5 nM | 6490 nM | – | CC(C)(C)n1cc(-c2cc(OC[C@@H]3CNCCCO3)c3cccnc3c2)cn1 [Compound 3.14, 7-(1-tert-butyl-1H-pyrazol-4-yl)-5-{[(2S)-1,4-oxazepan-2-yl]methoxy}quinoline] |
| 12.6 nM | 12.1 nM | 941 nM | – | CC(C)n1cc(-c2cc(OC[C@@H]3CNC[C@@H](C)O3)c3cccnc3c2)cn1 [Compound 3.23, 5-{[(2S,6R)-6-methylmorpholin-2-yl]methoxy}-7-[1-(propan-2-yl)-1H-pyrazol-4-yl]quinoline] |
| 23.7 nM | 50.9 nM | 1970 nM | – | CC1(C)CNC[C@@H](COc2cc(-c3cnn(C4CC4)c3)cc3ncccc23)O1 [Compound 3.8, 7-(1-cyclopropyl-1H-pyrazol-4-yl)-5-{[(2S)-6,6-dimethylmorpholin-2-yl]methoxy}quinoline] |
| 23.6 nM | 55.5 nM | – | 575 nM | CC(C)(C)n1cc(-c2cc3ncccc3c(OC[C@H]3OC[C@@H]4C[C@H]3N4)n2)cn1 (relative stereo) [Compound 2.106, 7-(1-tert-butyl-1H-pyrazol-4-yl)-5-{[rel-(1R,2S,5S)-3-oxa-6-azabicyclo[3.1.1]heptan-2-yl]methoxy}-1,6-naphthyridine] |
| 14.6 nM | 21.8 nM | 2050 nM | – | CC1(C)CNC[C@@H](COc2nc(-c3ccn(CC(F)F)c3)cc3ncccc23)O1 [Compound 6.13, 7-[1-(2,2-difluoroethyl)-1H-pyrrol-3-yl]-5-{[(2S)-6,6-dimethylmorpholin-2-yl]methoxy}-1,6-naphthyridine] |
| 12.9 nM | 11.7 nM | 1070 nM | – | CC(C)(C)n1cc(-c2cc3ncccc3c(OC[C@@H]3CNC[C@H](C4CC4)O3)n2)cn1 [Compound 2.102, 7-(1-tert-butyl-1H-pyrazol-4-yl)-5-{[(2S,6S)-6-cyclopropylmorpholin-2-yl]methoxy}-1,6-naphthyridine] |
| 51.1 nM | 99.1 nM | 6800 nM | – | Cn1cc(-c2cc(OC[C@@H]3CNCC4(CC4)O3)c3cccnc3c2)cn1 [Compound 3.19, 7-(1-methyl-1H-pyrazol-4-yl)-5-{[(5S)-4-oxa-7-azaspiro[2.5]octan-5-yl]methoxy}quinoline] |
| 21.4 nM | 17.8 nM | 1010 nM | – | CC(C)(C)n1cc(-c2cc3ncccc3c(OC[C@@H]3CNC[C@@H](C(F)F)O3)n2)cn1 [Compound 2.99, 7-(1-tert-butyl-1-pyrazol-4-yl)-5-{[(2S,6S)-6-(difluoromethyl)morpholin-2-yl]methoxy}-1,6-naphthyridine] |
| 14.7 nM | 4.3 nM | 684 nM | – | CC(C)n1ccc(-c2cc(OC[C@@H]3CNCC4(CCC4)O3)c3nccnc3c2)c1 [Compound 8.17, 5-{[(6S)-5-oxa-8-azaspiro[3.5]nonan-6-yl]methoxy}-7-[1-(propan-2-yl)-1H-pyrrol-3-yl]quinoxaline] |
| 39.6 nM | 30.4 nM | 5840 nM | – | CC(C)(C)n1ccc(-c2cc(OC[C@@H]3CNCCO3)c3cccnc3c2)c1 [Compound 3.15, 7-(1-tert-butyl-1H-pyrrol-3-yl)-5-{[(2S)-morpholin-2-yl]methoxy}quinoline] |
| 14.3 nM | 11.2 nM | 2090 nM | – | CC(C)n1ccc(-c2cc3ncccc3c(OC[C@@H]3CNCC4(CC4)O3)n2)c1 [Compound 6.22, 5-{[(5S)-4-oxa-7-azaspiro[2.5]octan-5-yl]methoxy}-7-[1-(propan-2-yl)-1-H-pyrrol-3-yl]-1,6-naphthyridine] |
| 19.8 nM | 47.2 nM | 1910 nM | – | CC(C)(C)n1cc(-c2cc3ncccc3c(OC[C@@H]3CNCC4(COC4)O3)n2)cn1 [Compound 13.15, 7-(1-tert-butyl-1H-pyrazol-4-yl)-5-{[(6S)-2,5-dioxa-8-azaspiro[3.5]nonan-6-yl]methoxy}-1,6-naphthyridine] |
| 28.4 nM | 41.9 nM | 3120 nM | – | COCCn1ccc(-c2cc3ncccc3c(OC[C@@H]3CNCC(C)(C)O3)n2)c1 [Compound 6.16, 5-{[(2S)-6,6-dimethylmorpholin-2-yl]methoxy}-7-[1-(2-methoxyethyl)-1H-pyrrol-3-yl]-1,6-naphthyridine] |

Reference: patent publication US20250263408A1 (Uniquest Pty Ltd, priority 2022, published 2025)
